Experimental findings from patent US8084621B2, “3-Pyrrolo[b]cyclohexylene-2-dihydroindolinone derivatives and uses thereof” (Jiangsu Simcere Pharmaceutical R&D Co. Ltd., priority 2006, dated 2011) are described below.

pIC50: −log10 of the molar value.

Common to all, as to assay type: cell-based
Test [1] deals with Human Colon Cancer Cell Line (CACO-2). Kind of test: Tumor cell proliferation assay (MTT), CACO-2. The note with it: concentration of 10^−5 mol/L, preliminary screening, 72 hours, read-out: Inhibition rate % CACO-2. An excerpt:
(§1) The assay used generally is the blue tetrazolium bromide (MTT) method. […] The amount of formazan can be detected by the microplate reader through the absorption value at 570 nm. The amount of formazan product generated is proportional to the number of living cells in the sample, so the OD value may reflect the number of living cells and the ability of a test drug to inhibit or kill cells. The MTT assay may be used in determining the ability of different compounds of the present invention to inhibit one or more cancer cells proliferation. Similar assays can be designed along the same lines for any cancer cell using techniques well known in the art.
(§2) The assay used generally is the blue tetrazolium bromide (MTT) method. […] Intracellular purple formazan salt crystals can be solved in DMSO and the absorption value at 570 nm is detected by the microplate reader, then the number of living cells can be detected indirectly. So MTT assay may be used to determine the ability of a compound of the present invention to inhibit cell proliferation. Similar assays can be designed along the same lines for any cancer cell using techniques well known in the art.
2.2.10 Human Colon Cancer Cell Line (CACO-2)
The cell of 2.2.10 cultured in DMEM/High glucose medium containing 12% fetal bovine serum in the condition of 37° C., 5% CO2.
(§3) 2.3.1 Cell seeding: Trypsinize the cell by 0.05% trypsin-EDTA and add RPMI 1640 medium (DMEM or 5A) containing 12% calf serum. Count the number, then dilute to 1.67×10^4/ml. Add 180 ul/well to the 96 well plate (3000 cells/well).
(§4) 2.3.2 Culture: cells are incubated for 24 hours at 37° C. under 5% CO2.
(§5) 2.3.3 Preliminary screening: The compounds are firstly diluted to 0.1 mol/L with DMSO, and then diluted to three concentrations of 10^−5 mol/L, 10^−6 mol/L and 10^−7 mol/L. Add 20 ul test compounds to the 96 well plate and incubate for 72 hours. Each group has three parallel wells and all experiments repeat three times. Each inhibition ratio is calculated, then an average value of three times is taken as the measured value. 2.3.4 Staining 2.3.4.1 Attached cell: add 20 ul/well MTT to the 96-well plates; incubate for 4 hours in the incubator. Pour out the culture medium in the well and add 100 ul/well DMSO. Shake the plate for 5 min. 2.3.4.2 Suspension cell: add 20 ul/well MTT to the 96-well plates; incubate for 4 hours in the incubator. Add 50 ul/well 20% SDS and incubate for overnight in the incubator. 2.3.5 Reading the plates: read the absorbance A570-A630 with the Infinite M200 microtiter plate reader. Calculate the inhibition ratio of the test compounds. 2.3.6 Secondary screening: the compounds whose inhibition ratio is greater than 50% at the concentrations of 10^−5 mol/L in the preliminary screening will be picked out for Secondary screening. Dilute these compounds to ten concentrations: 10^−5 mol/L, 0.5×10^−5 mol/L, 10^−6 mol/L, 0.8×10^−6 mol/L, 0.6×10^−6 mol/L, 0.4×10^−6 mol/L, 0.2×10^−6 mol/L, 10^−7 mol/L, 0.8×10^−7 mol/L and 0.4×10^−7 mol/L. Add 20 ul test compound solution to the 96 well plate and incubate for 48 hours. Each group has three parallel wells and all experiments repeat for three times. Read the plates and calculate the inhibition ratio according to the preliminary screening method. 2.3.7 Calculate the Inhibition Ratio of Cell Proliferation and the IC50
(§6) According to the inhibition ratio of cell proliferation at the different concentrations of the compound, inhibition ratio of 50% of the test compound is calculated through the logarithm of the concentration of the compound with the Logit [I] linear regression, and an average value of three times is taken as the measured value of a sample.

For test [2], the system named is Human Hepatocellular Carcinoma Cell Line (HEPG2). The experiment in a line: Tumor cell proliferation assay (MTT), HEPG2. The conditions noted are these: for inhibition at 10 µM: concentration of 10^−5 mol/L, preliminary screening, 72 hours, read-out: Inhibition rate % HEPG2; for pIC50: secondary screening, 48 hours.
From the text: as §1, §2
2.2.8 Human Hepatocellular Carcinoma Cell Line (HEPG2);
The cells of 2.2.8, 2.2.9 cultured in DMEM/High glucose medium containing 12% calf serum in the condition of 37° C., 5% CO2.
as §3, §4, §5, §6

Test [3] concerns Human Colon Cancer Cell Line (HCT 116). Kind of test: Tumor cell proliferation assay (MTT), HCT116. The note with it: concentration of 10^−5 mol/L, preliminary screening, 72 hours, read-out: Inhibition rate % HCT116.
From the text: as §1, §2
2.2.12 Human Colon Cancer Cell Line (HCT 116);
The cells of 2.2.11, 2.2.12, 2.2.13 were cultured in MC COYS 5-A medium containing 12% fetal bovine serum in the condition of 37° C., 5% CO2.
as §3, §4, §5, §6

Test [4] concerns Human Bladder Cancer Cell Line (T24). Kind of test: Tumor cell proliferation assay (MTT), T24. The conditions noted are these: for inhibition at 10 µM: concentration of 10^−5 mol/L, preliminary screening, 72 hours, read-out: Inhibition rate % T24; for pIC50: secondary screening, 48 hours.
From the text: as §1, §2
2.2.7 Human Bladder Cancer Cell Line (T24);
The cells of 2.2.6, 2.2.7 cultured in RPMI 1640 medium containing 12% fetal bovine serum in the condition of 37° C., 5% CO2.
as §3, §4, §5, §6

As for `CCN(CC)CCNC(=O)c1c(C)[nH]c2c1CCC/C2=C1/C(=O)Nc2ccc(F)cc21` [I-2, N-(2-(diethylamino)ethyl)-2-methyl-7-[1,2-dihydro-5-fluoro-2-oxo-3H-indol-(Z)-3-ylidene]-4,5,6,7-tetrahydro-1H-indole-3-carboxamide], the inhibition at 10 µM in test [1] came to 43%; in test [2] it was 64%; in test [3], 99.4%; in test [4], 81.4%. Also, the negative-log IC50 (pIC50) in test [2] was 5.14; in test [4], 5.48.

Consider `CCN(CC)CCNC(=O)c1c(C)[nH]c2c1CCC/C2=C1/C(=O)Nc2ccc(Cl)cc21` [I-3, N-(2-(diethylamino)ethyl)-2-methyl-7-[1,2-dihydro-5-chloro-2-oxo-3H-indol-(Z)-3-ylidene]-4,5,6,7-tetrahydro-1H-indole-3-carboxamide], for which, in test [2], the inhibition at 10 µM amounted to 98.2% and the negative logarithm of the IC50 (pIC50) is 5.50. Further, in test [4], the inhibition at 10 µM amounted to 98.1% and the pIC50 was 5.74.

In the case of `CCN(CC)CCNC(=O)c1c(C)[nH]c2c1CCC/C2=C1/C(=O)Nc2ccccc21` [I-5, N-(2-(diethylamino)ethyl)-2-methyl-7-[1,2-dihydro-2-oxo-3H-indol-(Z)-3-ylidene]-4,5,6,7-tetrahydro-1H-indole-3-carboxamide], the inhibition at 10 µM turned out to be 44.1% in test [1], 64.6% in test [2], 99.9% in test [3] and 74.5% in test [4]. The pIC50 in test [2] is 5.11; in test [4], 5.45.

Turning to `Cc1[nH]c2c(c1C(=O)NCCO)CCC/C2=C1/C(=O)Nc2ccccc21` [I-8, N-(2-hydroxyethyl)-2-methyl-7-[1,2-dihydro-2-oxo-3H-indol-(Z)-3-ylidene]-4,5,6,7-tetrahydro-1H-indole-3-carboxamide], the inhibition at 10 µM turned out to be 17% in test [1], 53.8% in test [2], 79.1% in test [3] and 64.6% in test [4].

In the case of `Cc1[nH]c2c(c1C(=O)NCCO)CCC/C2=C1/C(=O)Nc2ccc(F)cc21` [I-9, N-(2-hydroxyethyl)-2-methyl-7-[1,2-dihydro-5-fluoro-2-oxo-3H-indol-(Z)-3-ylidene]-4,5,6,7-tetrahydro-1H-indole-3-carboxamide], the inhibition at 10 µM in test [1] was found to be 18%; in test [2], 47.5%; in test [3], 61.9%; in test [4], 56.1%.

As to `Cc1[nH]c2c(c1C(=O)N1CCN(C)CC1)CCC/C2=C1/C(=O)Nc2ccc(F)cc21` [I-14, 2-methyl-3-(4-methylpiperazine-1-carbonyl)-7-[1,2-dihydro-5-fluoro-2-oxo-3H-indol-(Z)-3-ylidene]-4,5,6,7-tetrahydro-1H-indole], the inhibition at 10 µM worked out at 2.36% in test [1], 30.4% in test [2], 22.1% in test [3] and 34.4% in test [4].

Regarding `CCN(CC)CC(O)CNC(=O)c1c(C)[nH]c2c1CCC/C2=C1/C(=O)Nc2ccccc21` (centres unmarked) [I-63, N-(3-(diethylamino)-2-hydroxypropyl)-2-methyl-7-[1,2-dihydro-2-oxo-3H-indol-(Z)-3-ylidene]-4,5,6,7-tetrahydro-1H-indole-3-carboxamide], in test [2], the inhibition at 10 µM was found to be 100% and the pIC50 is 5.50. Also, in test [4], the inhibition at 10 µM was 99% and the pIC50 is 5.52.

For the compound `Cc1[nH]c2c(c1C(=O)NCC(O)CN1CCCCC1)CCC/C2=C1/C(=O)Nc2ccccc21` (centres unmarked) [I-73, N-(2-hydroxy-3-(piperidin-1-yl)propyl)-2-methyl-7-[1,2-dihydro-2-oxo-3H-indol-(Z)-3-ylidene]-4,5,6,7-tetrahydro-1H-indole-3-carboxamide], the inhibition at 10 µM turned out to be 44.4% in test [1], 59.3% in test [2], 98.7% in test [3] and 88.4% in test [4]. The negative logarithm of the IC50 (pIC50) in test [2] is 5.13; in test [4] it was 5.23.

Take `Cc1[nH]c2c(c1C(=O)NCC(O)CN1CCCCC1)CCC/C2=C1/C(=O)Nc2ccc(F)cc21` (centres unmarked) [I-74, N-(2-hydroxy-3-(piperidin-1-yl)propyl)-2-methyl-7-[1,2-dihydro-5-fluoro-2-oxo-3H-indol-(Z)-3-ylidene]-4,5,6,7-tetrahydro-1H-indole-3-carboxamide]: the inhibition at 10 µM came out at 83.1% in test [1], 84.9% in test [2], 99.9% in test [3] and 98.7% in test [4]. Besides, the pIC50 is 5.14 in test [2] and 5.58 in test [4].

As usually defined, the inhibition is the drop in the measured response relative to a control, in per cent. The pIC50 is −log10 of the IC50, conventionally taken in molar units. Lower therefore signals a high IC50.
